Several values for one entry are separate records, joined by “and”; a condition that tells them apart may be missing. Equal entries are not always repeated.
Test system: CX-1 Human Colon Carcinoma
Assay: Clonogenic dye screening assay, CX-1 cells (IC50)
Type: cell-based
Design: CX: unit not given here
Conditions: for CX (IC50 in the CX-1 cell line): 3 hrs treatment, colonies after 7-10 days, unit from method b117-118; for CV/CX (selectivity, kill ratio): ratio of IC50 in normal CV-1 line to IC50 in carcinoma CX-1 line; for CX: CX-1 cells; for CV/C: selectivity ratio, value of 1 where dye inactive
Source text: CX-1 is a cancerous human colon adenocarcinoma cell line. CV-1 is a non-cancerous control, which is a kidney epithelial cell line from an African green monkey. IC50 is the dye concentration at which 50% of the cells are killed. Selectivity or kill ratio is defined as the ratio of […] at IC50 for both CX-1 and CV-1. A ratio with a high number indicates a high selectivity.
The dyes were screened in two cell lines. CX-1 is a human colon adenocarcinoma cell line. CV-1 is a kidney epithelial cell line from an African green monkey. CV-1 was used as a reference because no normal human epithelial cell line is available for clonogenic assay.
In the initial screen, dyes were examined at six different concentrations to generate a dose response curve. An IC50 value, the concentration at which 50% of the cells are killed, was then calculated. Initially, a dye concentration of 1.0 μg/mL was the highest examined for the CX-1 cell line and 0.005 μg/mL was the lower limit. The corresponding limits on the CV-1 cell line were […].
The screening procedure used a response curve that was determined from eight dye concentrations. The upper and lower limits of CX-1 were 0.32 and 0.0015 μg/mL, respectively, and the corresponding revised limits on CV-1 were 3.2 and 0.025 μg/mL. The screening results were reported by assigning an IC50 value to each dye for the CV-1 and CX-1 cell lines. These values will be referred to herein simply as CV and CX. The most desirable result would be to have a dye that was highly toxic to carcinoma cells but nontoxic to ‘normal’ cells. One measure of this type of selectivity is the ratio of the IC50's in the normal cell line to that in the carcinoma line, CV/CX.
Compounds are screened via an in vitro assay. CV-1 and CX-1 cells are seeded into separate assay plates. The plates are treated with varying concentrations of test compounds, rinsed, and colonies allowed to grow. IC50's are determined and drugs evaluated based on their selectivity and toxicity. Assay Steps: • I. Seeding Cells • II. Weighing • III. Preparation of Solution • IV. Treatment • V. Rinsing and Feeding • VI. Fixing • VII. IC50 Determination I. Seeding Cells
The cells should be seeded 16-30 hours before treatment. The media for CV-1 cells is DME+5% calf serum +5% Nuserum. The media for CX-1 cells is RPMI/DME (50/50)+5% calf serum +5% Nuserum.
(c) number of cells based on 2000 CX-1 cells/well and 1000 CV-1 cells/well. NOTE: Always make enough cell suspension for 1 extra plate to allow for volume loss during transfers.
• (a) For CV-1: 256 ug/ml-256 ul of 1 mg/ml stock +744 ul DMSO • (b) For CX-1: 25.6 ug/ml-100 ul of 256 ug/ml+900 ul DMSO IV. Treatment • 1. Each plate is treated with 4 test compounds, one positive control and one negative control. • 2. Serial dilutions of the compounds are made in the following way:
2 multi-well pipetters are used. One is set for 10 ul and one for 200 ul. Each is equipped with 6 tips spaced such that they fit into the 6 rows of a plate. 390 ul of media is added to the first column of each plate. 10 ul each of 4 compound solutions, a positive and a negative control are taken up and put into the first column of wells. The 200 ul pipetter is then placed in the same wells, pipetted up and down 3 times and two 200 ul aliquots are moved to the next column of wells. This column is pipetted up and down 3 times and 400 ul moved to column 3, etc. The final 400 ul excess from column 8 is discarded.
• 3. Label the plates along the front, each row −1 compound. • 4. Incubate the plates at 37° C. for 3 hrs. V. Rinsing • 1. Prepare several bottles of CX-1 and CV-1 media. • 2. Check for precipitate in first column of each plate and note. • 3. Starting with the plates treated first, rinse several plates at a time by aspirating the treatments and refilling each well with 0.5-1.0 ml of the rinse media. Aspirate and refill 2 more times for a total of 3 rinses. • 4.

[1] = Table XVI, selectivity ratio of IC50 values
[2] = Table XXI, oxathiacarbocyanine nitrogen substituents
[3] = Table XVII, selectivity ratio of IC50 values

Compound	CX (IC50 in the CX-1 cell line)	CV/CX (selectivity, kill ratio)	also measured
O=C(C[n+]1c(/C=C/C=C2/Nc3ccccc3S2)sc2ccccc21)N1CCOCC1 [drawing 36|CC(═O)morpholino|H]	>0.32 µg/mL	10.0	
CCN1C(=C/C=C/c2sc3ccccc3[n+]2C)C=Cc2ccccc21 [Dye 2-quinoline]			CX (Table XVI, unsymmetrical dyes): <0.005; CV/CX [1]: >20.0
CCN1C(=CC=Cc2sc3cc(O)c(O)cc3[n+]2CC)Oc2ccccc21 [drawing 46|S|O|5,6-OH|H]		8.0	
CCN1/C(=C/C=C/c2sc3ccccc3[n+]2CCC=NNS(=O)(=O)c2ccc(C)cc2)Oc2ccccc21 [R1=CCC═NNS02Ph-4C, R2=Et]			CX [2]: 0.3; CV/C (Table XXI): 33.3
CCN1C=CC(=C/C=C/c2sc3ccccc3[n+]2CC)c2ccsc21 [4-thieno/2,3-b/pyridine]			CX (Table XVI, unsymmetrical dyes): 0.04; CV/CX [1]: 5.0
CCSC(CCN1/C(=C/C=C/c2sc3ccccc3[n+]2CCC(SCC)SCC)Sc2ccccc21)SCC [R1=CCC(SEt)2, R2=CCC(SEt)2]			CX (Table XX, thiacarbocyanine nitrogen substituents): >0.32; CV/CX (Table XX, ratio given a value of 1 where dye inactive): 4.1
CCC=NNC(N)=S [drawing 37|CCC═NNC(═S)N|Et]	>1.0 µg/mL	10.0	
CC[n+]1c(/C=C/C=C2\Oc3cc([N+](=O)[O-])c(Cl)cc3N2C)sc2cc([N+](=O)[O-])ccc21 [drawing 44|E/M|6-N03|5-Cl, 6-N03]		10.0	
CC[n+]1c(/C=C/C=C2\[Te]c3ccccc3N2C)sc2ccc3ccccc3c21.[I-] [Dye D-151]	0.007 µg/mL	71 and 71.42	CX (Table XVII, benzotellurazole derivatives): 0.007; CV/CX [3]: 71.4
CCN1/C(=C/C=C/c2sc3cc(C#N)ccc3[n+]2C)Sc2ccccc21 [drawing 41|M/E|6-CN|H]	0.16 µg/mL	20.0	
CCN1/C(=C/C=C/c2sc3cc(C)c(C)cc3[n+]2CC)Oc2ccccc21 [drawing 44|E|5,6-Me|H]		>20.0	
CCN1/C(=C/C=C/c2sc3c(N(C)C)cc(Cl)cc3[n+]2CC)Sc2ccccc21 [drawing 41|Et|5-Cl, 7-N(Me)2|H]	0.03 µg/mL	6.7	
CCN1/C(=C/C=C(\OC(C)=O)c2sc3ccccc3[n+]2CC)Oc2ccccc21 [drawing 39|E|OAc|H]		10.0	
CCN1/C(=C/C=C/c2sc3ccccc3[n+]2CC(=O)c2ccccc2)Oc2ccccc21 [R1=CC(═0)Ph, R2=Et]			CX [2]: 0.3; CV/C (Table XXI): 10.0
CN1/C(=C/C=C/c2[te]c3ccc(O)cc3[n+]2C)[Te]c2ccc(O)cc21 [R=M, X=Te, Z1=5-OH, R2=H, Z2=5-OH]			CV/CX [3]: 7.6
CCN1C(=CC=Cc2sc3cc(OC)c(OC)cc3[n+]2CC)Sc2ccccc21 [drawing 41|Et|5,6-MeO|H]	0.02 µg/mL	20.0	
CCN1/C(=C/C=C/c2sc3ccccc3[n+]2CCC(=O)N(c2ccccc2)C(C)C)Oc2ccccc21 [R1=CCC(═O)N(iPr)Ph, R2=Et]			CX [2]: 0.03; CV/C (Table XXI): 26.7
CCN1/C(=C/C(=C/c2oc3ccccc3[n+]2C)SC)Sc2ccc(Cl)cc21.[I-] [Dye D-169]		100.0	
CCN1/C(=C/C=C/c2sc3ccccc3[n+]2CCNS(=O)(=O)c2ccc(C)cc2)Oc2ccccc21 [drawing 37|CCNSO2Ph-4C|Et]	0.3 µg/mL	26.7	
CCN1/C(=C/C=C/c2sc3ccc4ccccc4c3[n+]2CC)Sc2cc(N)ccc21 [drawing 47|NH2]	0.10 µg/mL	40	
CCN1/C(=C/C=C/c2sc3ccccc3[n+]2CC)Sc2ccccc21.[I-] [Dye D-165]		100	CV/CX [1]: 100.0
CSC(=Cc1sc2ccccc2[n+]1C)C=C1Sc2ccccc2N1C [drawing 38|M|H|SMe|H]	0.015 µg/mL	26.6	
CC[n+]1c(/C(=C/C=C2\Oc3ccccc3N2C)Sc2ccccc2)sc2ccccc21 [drawing 39|M/E|SPh|H]		3.0	

Reference: patent US20060099712A1, “Correlation of anti-cancer activity of dyes with redox potentials” (Eastman Kodak Company, priority 2004, published 2006)
